Experimental data published in patent publication US5942489A, “HGH-RH(1-29)NH2 analogues having antagonistic activity” (The Administrators of the Tulane Educational Fund, priority 1996, dated 1999).
Where a SMILES comes first, the peptide text is derived from it. Bridges are numbered along the chain shown (N, C = ends). [ ]: non-standard residue; d: D form. The star is where a group is joined. 2Nal = N[C@@H](Cc1ccc2ccccc2c1)C(=O)O; Nle = CCCC[C@H](N)C(=O)O; Orn = NCCC[C@H](N)C(=O)O; Abu = CC[C@H](N)C(=O)O; PhAc = O=C(Cc1ccccc1)*

Tested on: GH release induced by 1 nM hGH-RH(1-29)NH2 in superfused rat pituitary cells
Assay: Inhibition of hGH-RH(1-29)NH2-induced GH release in superfused rat pituitary system
Assay type: cell-based
Details: 30 nM peptide; for Inhibition of GH release (%) 0 min: 0 min response; for Inhibition of GH release (%) 30 min: 30 min response; for Inhibition of GH release (%) 60 min: 60 min response; for Inhibition of GH release (%) 90 min: 90 min response; for Inhibition of GH release (%) 120 min: 120 min response
Experimental: Superfused Rat Pituitary System. The analogues were tested in vitro in a test described earlier (S. Vigh and A. V. Schally, Peptides 5:241-[…], 1984) with modification (Z. Rekasi and A. V. Schally, P. N. A. S. 90:2146-2149, 1993).
Briefly, the cells are preincubated with peptides for 9 minutes (3 mL) at various concentrations. Immediately after the incubation, 1 nM hGH-RH(1-29)NH2 is administered for 3 minutes (1 mL) [0 minute response]. To check the duration of the antagonistic effect of the analogue, 1 nM hGH-RH(1-29)NH2 is applied 30, 60, 90, and 120 minutes later for 3 minutes [30, 60, 90, 120 min responses]. Net integral values of the GH responses are evaluated. GH responses are compared to and expressed as percent of the original GH response induced by 1 nM GH-RH(1-29)NH2. The effect of the new antagonists are compared to that of [Ac-Tyr^1,D-Arg^2 ]hGH-RH(1-29)NH2, the "Standard antagonist".
Growth Hormone Radio-immunoassay. Rat GH levels in aliquots of undiluted and diluted superfusion samples were measured by double-antibody radioimmunoassay using materials supplied by the National Hormone and Pituitary Program, Baltimore, Md. The results of RIA were analyzed with a computer program developed in our institute (V. Csernus and A. V. Schally, Harwood Academic (Greenstein, B. C. ed., London, pp. 71-109, 1991), hereby incorporated by reference. Inter-assay variation was less than 15% and intra-assay variation was less than 10%.

Compound	Inhibition of GH release (%) 0 min [%]	Inhibition of GH release (%) 30 min [%]	Inhibition of GH release (%) 60 min [%]	Inhibition of GH release (%) 90 min [%]	Inhibition of GH release (%) 120 min [%]
CCCC[C@H](NC(=O)[C@@H](NC(=O)[C@H](CC(=O)O)NC(=O)[C@H](CCC(N)=O)NC(=O)[C@H](CC(C)C)NC(=O)[C@H](CC(C)C)NC(=O)[C@H](CCCCN)NC(=O)[C@H](CCCNC(=N)N)NC(=O)[C@H](C)NC(=O)[C@H](CO)NC(=O)[C@H](CC(C)C)NC(=O)[C@H](CCC(N)=O)NC(=O)[C@H](C)NC(=O)[C@H](CC(C)C)NC(=O)[C@@H](NC(=O)[C@H](CCCCN)NC(=O)[C@H](CCCNC(=N)N)NC(=O)[C@H](Cc1ccc(O)cc1)NC(=O)[C@H](CO)NC(=O)[C@H](CC)NC(=O)[C@@H](NC(=O)[C@H](Cc1ccc2ccccc2c1)NC(=O)[C@@H](NC(=O)[C@H](C)NC(=O)[C@H](CC(=O)O)NC(=O)[C@@H](CCCNC(=N)N)NC(=O)[C@H](Cc1ccc(O)cc1)NC(=O)Cc1ccccc1)[C@@H](C)CC)[C@@H](C)O)C(C)C)[C@@H](C)CC)C(=O)N[C@@H](CC)C(=O)N[C@@H](CCCNC(=N)N)C(N)=O [Peptide 12, [PhAc^0,D-Arg^2,Nal^6,Abu^8,28,Ala^15,Nle^27]hGH-RH(1-29)NH2] (PhAc-Y[dR]DAI[2Nal]T[Abu]SYRKVLAQLSARKLLQDI[Nle][Abu]R-NH2)	87.0	61.0	37.0	34.0	41.0
[PhAc^0,Tyr(Me),D-Arg^2,Phe(pCl)^6,Ala^15,Nle^27 ]hGH-RH(1-29)-NH2 [Peptide 10]	84.8	35.2	38.2	29.8	33.8
CCCC[C@@H]1NC(=O)[C@H]([C@@H](C)CC)NC(=O)[C@H](NC(=O)[C@H](CCC(N)=O)NC(=O)[C@H](CC(C)C)NC(=O)[C@H](CC(C)C)NC(=O)[C@H](CCCCN)NC(=O)[C@H](CCCNC(=N)N)NC(=O)[C@H](C)NC(=O)[C@H](CO)NC(=O)[C@H](CC(C)C)NC(=O)[C@H](CCC(N)=O)NC(=O)[C@H](C)NC(=O)[C@H](CC(C)C)NC(=O)[C@@H](NC(=O)[C@H](CCCCN)NC(=O)[C@H](CCCNC(=N)N)NC(=O)[C@H](Cc2ccc(O)cc2)NC(=O)[C@H](CO)NC(=O)[C@H](CC)NC(=O)[C@@H](NC(=O)[C@H](Cc2ccc3ccccc3c2)NC(=O)[C@@H](NC(=O)[C@H](C)NC(=O)[C@H](CC(=O)O)NC(=O)[C@@H](CCCNC(=N)N)NC(=O)[C@H](Cc2ccc(O)cc2)NC(=O)Cc2ccccc2)[C@@H](C)CC)[C@@H](C)O)C(C)C)CC(=O)NCCC[C@@H](C(N)=O)NC(=O)[C@H](CO)NC1=O [Peptide 20, cyclo^25,29 [PhAc^0,D-Arg^2,Nal^6,Abu^8,Ala^15,D-Asp^25,Nle^27,Orn^29]hGH-RH(1-29)NH2] (PhAc-Y[dR]DAI[2Nal]T[Abu]SYRKVLAQLSARKLLQ[dD]I[Nle]S[Orn]-NH2; lactam 25-29)	11.0	0.0	0.0	13.0	
